Laboratory results as given in ChEMBL document CHEMBL1130441, “Studies on -lactam antibiotics. Synthesis and antibacterial activity of novel 1-methylcarbapenems related to FR21818: 5-membered ring analogs” (1997).
≈ marks a conversion by molar mass, not a printed value.

Key:
Escherichia coli = assay: In vitro antibacterial activity of compound was measured on Escherichia coli NIHJ JC-2; assay type: functional
Proteus vulgaris = assay: In vitro antibacterial activity of compound was measured on Proteus vulgaris IAM 1025; assay type: functional
Pseudomonas aeruginosa [1] = assay: In vitro antibacterial activity of compound was measured on Pseudomonas aeruginosa IAM 1095; assay type: functional
Staphylococcus aureus [2] = assay: In vitro antibacterial activity of compound was measured on Staphylococcus aureus 209P JC-1; assay type: functional
Staphylococcus aureus [3] = assay: In vitro antibacterial activity of compound was measured on Staphylococcus aureus 3004(MRSA); assay type: functional
Pseudomonas aeruginosa [4] = assay: In vitro antibacterial activity of compound was measured on Pseudomonas aeruginosa 26; assay type: functional
[5] = molecular target: Dipeptidase 1 (Homo sapiens) (UniProt P16444); assay: In vitro rate of hydrolysis by human dehydropeptidase-1 compared to meropenem.
Mus musculus [6] = assay: Protective activity of compound was measured against lethal systemic infection by Staphylococcus aureus 8008 (MRSA) in ICR mice at 1 hr after subcutaneous administration; assay type: functional; conditions: sc
Mus musculus [7] = assay: Protective activity of compound against lethal systemic infection by Staphylococcus aureus 8008 (MRSA) in ICR mice at 1 hr after sc administration; assay type: functional

Chain of Dipeptidase 1 (Homo sapiens) (P16444 whole entry, looked up): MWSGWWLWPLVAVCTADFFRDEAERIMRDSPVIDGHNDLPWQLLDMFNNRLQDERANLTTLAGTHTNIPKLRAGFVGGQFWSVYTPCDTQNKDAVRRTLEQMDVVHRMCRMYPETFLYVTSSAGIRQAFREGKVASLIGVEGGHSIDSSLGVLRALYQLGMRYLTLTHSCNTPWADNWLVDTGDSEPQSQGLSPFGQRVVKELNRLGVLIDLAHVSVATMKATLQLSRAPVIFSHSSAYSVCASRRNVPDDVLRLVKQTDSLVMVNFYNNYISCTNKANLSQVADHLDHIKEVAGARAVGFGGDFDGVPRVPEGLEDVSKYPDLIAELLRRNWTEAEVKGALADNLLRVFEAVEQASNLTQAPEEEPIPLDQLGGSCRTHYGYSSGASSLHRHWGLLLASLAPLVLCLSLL

Compound | MIC (Escherichia coli) [µg/mL] | MIC (Proteus vulgaris) [µg/mL] | MIC (Pseudomonas aeruginosa [1]) [µg/mL] | MIC (Staphylococcus aureus [2]) [µg/mL] | MIC (Staphylococcus aureus [3]) [µg/mL] | MIC (Pseudomonas aeruginosa [4]) [µg/mL] | DHP-I stability [5] | ED50 (Mus musculus [6]) [mg/kg] | ED50 (Mus musculus [7]) [mg/kg]
C[C@@H](O)[C@H]1C(=O)N2C(C(=O)O)=C(S[C@@H]3CN[C@H](Cc4cn(C)[n+](C)c4CO)C3)[C@H](C)[C@H]12.[Cl-] | 0.39 | 1.56 | 6.25 | 0.05 | 6.25 | 0.39 | 0.24 |  | 
C[C@@H](O)[C@H]1C(=O)N2C(C(=O)O)=C(S[C@@H]3CN[C@H](Cc4c[n+](C)cn4C)C3)[C@H](C)[C@H]12.[Cl-] | 0.2 | 0.78 | 3.13 | 0.05 | 6.25 | 0.2 | 0.41 |  | 
C[C@@H](O)[C@H]1C(=O)N2C(C(=O)O)=C(S[C@@H]3CN[C@H](Cc4cc[n+](C)n4C)C3)[C@H](C)[C@H]12.[Cl-] | 0.2 | 0.78 | 1.56 | 0.05 | 6.25 | 0.2 | 0.42 |  | 
CN[C@H](CC(C)C)C(=O)N[C@H]1C(=O)N[C@@H](CC(N)=O)C(=O)N[C@H]2C(=O)N[C@H]3C(=O)N[C@H](C(=O)N[C@H](C(=O)O)c4cc(O)cc(O)c4-c4cc3ccc4O)[C@H](O)c3ccc(c(Cl)c3)Oc3cc2cc(c3O[C@@H]2O[C@H](CO)[C@@H](O)[C@H](O)[C@H]2O[C@H]2C[C@](C)(N)[C@H](O)[C@H](C)O2)Oc2ccc(cc2Cl)[C@H]1O [VANCOMYCIN] |  |  |  |  |  |  |  | 2.73 | 
C[C@@H](O)[C@H]1C(=O)N2C(C(=O)O)=C(S[C@@H]3CN[C@H](Cc4cc[n+](CCO)n4C)C3)[C@H](C)[C@H]12.[Cl-] | 0.2 | 1.56 | 6.25 | 0.05 | 6.25 | 0.2 | 0.26 | 5.45 | 
C[C@@H](O)[C@H]1C(=O)N2C(C(=O)[O-])=C(SC3Cn4cnc[n+]4C3)[C@H](C)[C@H]12 (some centres undefined) [BIAPENEM] | 0.39 (≈ 1.11 µM) | 3.13 (≈ 8.93 µM) | 1.56 (≈ 4.45 µM) | 0.05 (≈ 0.143 µM) | 25 (≈ 71.3 µM) | 0.2 (≈ 0.571 µM) | 0.15 |  | 35.2
C[C@@H](O)[C@H]1C(=O)N2C(C(=O)O)=C(S[C@@H]3CN[C@H](C(=O)N(C)C)C3)[C@H](C)[C@H]12 [MEROPENEM] | 0.025 (≈ 0.0652 µM) | 0.1 (≈ 0.261 µM) | 1.56 (≈ 4.07 µM) | 0.1 (≈ 0.261 µM) | 25 (≈ 65.2 µM) | 0.2 (≈ 0.522 µM) | 1 |  | 7.88
C[C@@H](O)[C@H]1C(=O)N2C(C(=O)O)=C(S[C@@H]3CN[C@H](Cc4cn(C)[n+](C)c4)C3)[C@H](C)[C@H]12.[Cl-] | 0.2 | 1.56 | 3.13 | 0.05 | 3.13 | 0.39 | 0.28 |  | 
C[C@@H](O)[C@H]1C(=O)N2C(C(=O)O)=C(S[C@@H]3CN[C@H](Cc4cn(C)[n+](CC(N)=O)c4)C3)[C@H](C)[C@H]12.[Cl-] | 0.2 | 0.78 | 3.13 | < 0.025 | 6.25 | 0.2 | 0.29 |  | 
CC1(C)C[C@@H]1C(=O)N/C(=C\CCCCSC[C@H](N)C(=O)O)C(=O)O [CILASTATIN] |  |  |  |  |  |  |  |  | 7.88
C[C@@H](O)[C@H]1C(=O)N2C(C(=O)O)=C(S[C@@H]3CN[C@H](Cc4n(C)nc[n+]4C)C3)[C@H](C)[C@H]12.[Cl-] | 0.2 | 0.78 | 12.5 | 0.1 | 12.5 | 1.56 | 0.22 |  | 
C[C@@H](O)[C@H]1C(=O)N2C(C(=O)O)=C(S[C@@H]3CN[C@H](Cc4cn(C)[n+](CCO)c4)C3)[C@H](C)[C@H]12.[Cl-] | 0.39 | 1.56 | 1.56 | 0.05 | 12.5 | 0.39 | 0.2 |  | 

The next lines start with results.

MIC (Escherichia coli) [µg/mL] | MIC (Proteus vulgaris) [µg/mL] | MIC (Pseudomonas aeruginosa [1]) [µg/mL] | MIC (Staphylococcus aureus [2]) [µg/mL] | MIC (Staphylococcus aureus [3]) [µg/mL] | MIC (Pseudomonas aeruginosa [4]) [µg/mL] | DHP-I stability [5] | Compound | ED50 (Mus musculus [6]) [mg/kg] | ED50 (Mus musculus [7]) [mg/kg]
0.1 | 0.78 | 12.5 | 0.1 | 6.25 | 0.39 | 0.3 | C[C@@H](O)[C@H]1C(=O)N2C(C(=O)O)=C(S[C@@H]3CN[C@H](Cc4n(C)cc[n+]4C)C3)[C@H](C)[C@H]12.[Cl-] |  | 
0.2 | 0.78 | 1.56 | 0.05 | 6.25 | 0.2 | 0.27 | C[C@@H](O)[C@H]1C(=O)N2C(C(=O)O)=C(S[C@@H]3CN[C@H](Cc4c[n+](C)c(CO)n4C)C3)[C@H](C)[C@H]12.[Cl-] |  | 
0.2 | 0.78 | 3.13 | 0.1 | 25 | 0.39 | 0.28 | C[C@@H](O)[C@H]1C(=O)N2C(C(=O)O)=C(S[C@@H]3CN[C@H](Cc4c(CO)c[n+](C)n4C)C3)[C@H](C)[C@H]12.[Cl-] |  | 
0.1 | 0.78 | 3.13 | 0.05 | 12.5 | 0.2 | 0.31 | C[C@@H](O)[C@H]1C(=O)N2C(C(=O)O)=C(S[C@@H]3CN[C@H](Cc4c[n+](CC(N)=O)cn4C)C3)[C@H](C)[C@H]12.[Cl-] |  | 
0.1 | 0.78 | 3.13 | 0.05 | 25 | 0.39 | 0.32 | C[C@@H](O)[C@H]1C(=O)N2C(C(=O)O)=C(S[C@@H]3CN[C@H](Cc4c[n+](C)nn4C)C3)[C@H](C)[C@H]12.[Cl-] |  | 
0.1 |  | 1.56 |  |  |  | 0.3 | C[C@@H](O)[C@H]1C(=O)N2C(C(=O)O)=C(S[C@@H]3CN[C@H](Cc4c[n+](C)c(C(N)=O)n4C)C3)[C@H](C)[C@H]12.[Cl-] |  | 
0.1 | 0.78 | 6.25 | 0.1 | 12.5 | 0.39 | 0.14 | C[C@@H](O)[C@H]1C(=O)N2C(C(=O)O)=C(S[C@@H]3CN[C@H](Cc4cn(C)[n+](CC(=O)O)c4)C3)[C@H](C)[C@H]12.[Cl-] |  | 
0.1 | 1.56 | 3.13 | 0.05 | 12.5 | 0.39 | 0.25 | C[C@@H](O)[C@H]1C(=O)N2C(C(=O)O)=C(S[C@@H]3CN[C@H](Cc4c[n+](CCO)cn4C)C3)[C@H](C)[C@H]12.[Cl-] |  | 
0.1 | 0.39 | 3.13 | < 0.025 | 6.25 | 0.1 | 0.35 | C[C@@H](O)[C@H]1C(=O)N2C(C(=O)O)=C(S[C@@H]3CN[C@H](Cc4cc[n+](CC(N)=O)n4C)C3)[C@H](C)[C@H]12.[Cl-] |  | 
0.1 |  | 6.25 |  |  |  |  | C[C@@H](O)[C@H]1C(=O)N2C(C(=O)O)=C(S[C@@H]3CN[C@H](Cc4cc(CO)[n+](C)n4C)C3)[C@H](C)[C@H]12.[Cl-] |  | 
0.05 |  | 3.13 |  |  |  | 0.61 | C[C@@H](O)[C@H]1C(=O)N2C(C(=O)O)=C(S[C@@H]3CN[C@H](Cc4cc[n+](CC(=O)O)n4C)C3)[C@H](C)[C@H]12.[Cl-] |  | 
0.1 |  | 3.13 |  |  |  | 0.21 | C[C@@H](O)[C@H]1C(=O)N2C(C(=O)O)=C(S[C@@H]3CN[C@H](Cc4cn5[n+](c4)CCC5)C3)[C@H](C)[C@H]12.[Cl-] |  | 
0.1 | 0.78 | 3.13 | 0.1 | 25 | 0.39 | 0.17 | C[C@@H](O)[C@H]1C(=O)N2C(C(=O)O)=C(S[C@@H]3CN[C@H](Cc4c[n+](CCO)nn4C)C3)[C@H](C)[C@H]12.[Cl-] |  | 
